Laboratory results taken from patent US4302448A, “Secretin preparations with intensified and protracted action, process for their manufacture, their use as well as dihydroxybenzoyl-L-tyrosine” (Hoechst Aktiengesellschaft, priority 1979, dated 1981).
Where a SMILES comes first, the peptide text is derived from it. The star is where a group is joined. Cbz = O=C(OCc1ccccc1)*

system: Pancreatic juice secretion of the rat; test: Pancreatic juice secretion of the rat after subcutaneous administration of secretin with depot bodies; format: in vivo; conditions: rat, subcutaneous, 5 CU/kg secretin + 10 mg depot body/animal; after 5 hours; control=100%; measure of depot effect
Description: Secretin preparations for subcutaneous application which contained the depot bodies specified in the following Table were tested in animal experiments. In the experimental procedure chosen, 5 to 8 male rats weighing 300 to 500 g each are administered subcutaneously 5 CU/kg of secretin (CU means clinical unit) and 10 mg of the depot body to be tested each in aqueous solution or suspension.
The animals remain without food for 18 hours prior to the test, but they are given water ad libitum. Under urethane anaesthesia (5 ml/kg i.m. of 25% urethane) the abdomen is opened by median section after tracheotomy, and the pylorus is ligated. The ductus choledochus is tied off in its proximal part near the porta hepatis, and the bile is led into the duodenum via a polyethylene tube of a diameter of […]. A cannula or catheter is inserted into the distal part of the bile duct, into which the numerous pancreatic ducts open, immediately before it opens into the duodenum, and the volume of the secretion running off is measured in 60 minute intervals. Following a preliminary run of 60 minutes the preparations are administered.
L means the compound known from literature and characterized by the melting point, optionally UV, IR or NMR. A to C relate to the preparation according to Example 1, process A to C. These compounds were characterized by ultimate analysis. The third column indicates the percentage by which the pancreatic secretion is above the basal secretion after 5 hours (calculated on the control=100%). This value is a measure for the depot effect of the depot body tested. Column 4 indicates the intensification of the secretin effect, with the total pancreatic juice secretion having been given over 5 hours as compared with the control (0.9% of NaCl)=1.

Compared with “2,8-Dihydroxy-3-naphthoyl-diethanolamine”, “3,5-Dihydroxyphenylcarbonyl-ethylphenyl-3,5-dimethyl phosphate” is lower in “Δ% vs. control (percentage by which the pancreatic secretion is above the basal secretion after 5 hours)” value: 77% for the first, 62% for the second.

First: O=C(c1ccc2ccccc2c1O)N(CCO)CCO [1-Hydroxy-2-naphthoic acid-diethanolamide]
Second: O=C(NCCO)c1ccc2ccccc2c1O [1-Hydroxy-2-naphthoic acid-ethanolamide]
The “Δ% vs. control (percentage by which the pancreatic secretion is above the basal secretion after 5 hours)” value of the first is higher: 79% for the first, 74% for the second.

First: O=C(c1ccc(O)cc1O)c1ccc(O)cc1O [2,2'-4,4'-Tetrahydroxybenzophenone]
Second: O=C(c1ccccc1)c1ccc(O)c(O)c1O [2,3,4-Trihydroxy-benzophenone]
The “Δ% vs. control (percentage by which the pancreatic secretion is above the basal secretion after 5 hours)” value of the first is lower: 58% for the first, 109% for the second.

Compared with `CC(=O)c1ccc(O)cc1O` [2,4-Dihydroxy-acetophenone], `O=C(c1ccccc1)c1ccc(O)cc1O` [2,4-Dihydroxy-benzophenone] is higher in “Δ% vs. control (percentage by which the pancreatic secretion is above the basal secretion after 5 hours)” value: 70% for the first, 163% for the second.

First: O=C(NCc1ccccc1)c1ccc(O)cc1O [2,4-Dihydroxybenzoic acid-benzylamide]
Second: O=C(O)c1ccc(O)cc1O [2,4-Dihydroxybenzoic acid]
The “Δ% vs. control (percentage by which the pancreatic secretion is above the basal secretion after 5 hours)” value of the first is higher: 64% for the first, 28% for the second.

First: O=C(N[C@@H](Cc1ccc(O)cc1)C(=O)N(CCO)CCO)c1ccc(O)cc1O [2,4-Dihydroxybenzoyl-L-tyrosine-diethanolamide]
Second: COC(=O)[C@H](Cc1ccc(O)cc1)NC(=O)c1ccc(O)cc1O [2,4-Dihydroxybenzoyl-L-tyrosine-methyl ester]
The “Δ% vs. control (percentage by which the pancreatic secretion is above the basal secretion after 5 hours)” value of the first is lower: 47% for the first, 70% for the second.

Going from `CCCCNC(=O)[C@H](Cc1ccc(O)cc1)NC(=O)c1ccc(O)cc1O` [2,4-Dihydroxybenzoyl-L-tyrosine-n-butylamide] to `O=C(N[C@@H](Cc1ccc(O)cc1)C(=O)O)c1ccc(O)cc1O` [2,4-Dihydroxybenzoyl-L-tyrosine], the “Δ% vs. control (percentage by which the pancreatic secretion is above the basal secretion after 5 hours)” value falls from 87% to 84%.

Compared with `O=C(c1cc(Cl)ccc1O)N(CCO)CCO` [2-Hydroxy-5-chloro-benzoic acid-diethanolamide], `NC(=O)c1ccccc1O` [2-Hydroxy-benzoic acid amide] is lower in “Δ% vs. control (percentage by which the pancreatic secretion is above the basal secretion after 5 hours)” value: 77% for the first, 51% for the second.

Going from `O=C(O)c1ccccc1O` [2-Hydroxy-benzoic acid] to `O=C(c1ccccc1)c1ccccc1O` [2-Hydroxy-benzophenone], the “Δ% vs. control (percentage by which the pancreatic secretion is above the basal secretion after 5 hours)” value rises from 6% to 74%.

First: O=C(O)c1cc(O)nc2ccccc12 [2-Hydroxy-quinoline-4-carboxylic acid]
Second: O=C(CO)c1ccccc1 [2-Hydroxyacetophenone]
The “Δ% vs. control (percentage by which the pancreatic secretion is above the basal secretion after 5 hours)” value of the first is lower: 5% for the first, 38% for the second.

Going from `O=C(O)c1cc(O)c(O)c(O)c1` [3,4,5-Trihydroxybenzoic acid] to `NC(=O)c1cc(O)cc(O)c1` [3,5-Dihydroxybenzoic acid amide], the “Δ% vs. control (percentage by which the pancreatic secretion is above the basal secretion after 5 hours)” value rises from 28% to 34%.

First: O=C(Nc1cccc(O)c1)c1cc(O)cc(O)c1 [3,5-Dihydroxybenzoic acid-3-hydroxy-anilide]
Second: O=C(O)c1cc(O)cc(O)c1 [3,5-Dihydroxybenzoic acid]
The “Δ% vs. control (percentage by which the pancreatic secretion is above the basal secretion after 5 hours)” value of the first is higher: 49% for the first, 25% for the second.

Going from `O=C(NC(Cc1ccc(O)cc1)C(=O)N(CCO)CCO)c1cc(O)cc(O)c1` [3,5-Dihydroxybenzoyl-L-tyrosine-diethanolamide] to `NS(=O)(=O)c1cccc(NC(=O)c2ccccc2O)c1` [3-(2-Hydroxybenzoylamino)-benzene-sulfonamide], the “Δ% vs. control (percentage by which the pancreatic secretion is above the basal secretion after 5 hours)” value rises from 76% to 81%.

First: CC(=O)c1cccc(O)c1 [3-Hydroxy-acetophene]
Second: O=C(c1ccccc1)c1cccc(O)c1 [3-Hydroxy-benzophenone]
The “Δ% vs. control (percentage by which the pancreatic secretion is above the basal secretion after 5 hours)” value of the first is lower: 54% for the first, 79% for the second.

Compared with `O=C(O)c1cccc(O)c1` [3-Hydroxybenzoic acid], `O=S(=O)(c1ccc(O)cc1)c1ccc(O)cc1` [4,4'-Dihydroxy-diphenyl sulfone] is higher in “Δ% vs. control (percentage by which the pancreatic secretion is above the basal secretion after 5 hours)” value: 47% for the first, 74% for the second.

Compared with `COC(=O)c1ccc(O)cc1` [4-Hydroxy-benzoic acid-methyl-ester], `OCc1ccc(O)cc1` [4-Hydroxy-benzyl alcohol] is lower in “Δ% vs. control (percentage by which the pancreatic secretion is above the basal secretion after 5 hours)” value: 15% for the first, 12% for the second.

First: CC(=O)c1ccc(O)cc1 [4-Hydroxyacetophenone]
Second: O=S(=O)([O-])c1ccc(O)cc1.[Na+] [4-Hydroxybenzene-sulfonic acid-Na]
The “Δ% vs. control (percentage by which the pancreatic secretion is above the basal secretion after 5 hours)” value of the first is higher: 43% for the first, 18% for the second.

First: O=C(O)c1ccc(O)cc1 [4-Hydroxybenzoic acid]
Second: O=C(c1ccccc1)c1ccc(O)cc1 [4-Hydroxybenzophenone]
The “Δ% vs. control (percentage by which the pancreatic secretion is above the basal secretion after 5 hours)” value of the first is lower: 38% for the first, 70% for the second.

First: Oc1cccc2cccnc12 [8-Hydroxyquinoline]
Second: O=C(N[C@@H](Cc1ccc(O)cc1)C(=O)O)OCc1ccccc1 [Benzyloxycarbonyl-L-tyrosine]
The “Δ% vs. control (percentage by which the pancreatic secretion is above the basal secretion after 5 hours)” value of the first is higher: 37% for the first, 7% for the second.

With `O=C(N[C@@H](Cc1ccc(O)cc1)C(=O)N[C@@H](Cc1ccc(O)cc1)C(=O)O)OCc1ccccc1` [Benzyloxycarbonyl-L-tyrosyl-L-tyrosine] (Cbz-Tyr-Tyr-OH) the “Δ% vs. control (percentage by which the pancreatic secretion is above the basal secretion after 5 hours)” value was 62%.

same assay, conditions: rat, subcutaneous, 5 CU/kg secretin + 10 mg depot body/animal; control (0.9% of NaCl)=1

Compared with “2,8-Dihydroxy-3-naphthoyl-diethanolamine”, “3,5-Dihydroxyphenylcarbonyl-ethylphenyl-3,5-dimethyl phosphate” is lower in “Rel. Intensity of effect over 5 hours (total pancreatic juice secretion over 5 hours as compared with control)” value: 9.1 for the first, 3.4 for the second.

Compared with `O=C(c1ccc2ccccc2c1O)N(CCO)CCO` [1-Hydroxy-2-naphthoic acid-diethanolamide], `O=C(NCCO)c1ccc2ccccc2c1O` [1-Hydroxy-2-naphthoic acid-ethanolamide] is lower in “Rel. Intensity of effect over 5 hours (total pancreatic juice secretion over 5 hours as compared with control)” value: 8.1 for the first, 8.0 for the second.

Compared with `O=C(c1ccc(O)cc1O)c1ccc(O)cc1O` [2,2'-4,4'-Tetrahydroxybenzophenone], `O=C(c1ccccc1)c1ccc(O)c(O)c1O` [2,3,4-Trihydroxy-benzophenone] is higher in “Rel. Intensity of effect over 5 hours (total pancreatic juice secretion over 5 hours as compared with control)” value: 4.8 for the first, 9.1 for the second.

Going from `CC(=O)c1ccc(O)cc1O` [2,4-Dihydroxy-acetophenone] to `O=C(c1ccccc1)c1ccc(O)cc1O` [2,4-Dihydroxy-benzophenone], the “Rel. Intensity of effect over 5 hours (total pancreatic juice secretion over 5 hours as compared with control)” value rises from 6.1 to 9.1.

First: O=C(NCc1ccccc1)c1ccc(O)cc1O [2,4-Dihydroxybenzoic acid-benzylamide]
Second: O=C(O)c1ccc(O)cc1O [2,4-Dihydroxybenzoic acid]
The “Rel. Intensity of effect over 5 hours (total pancreatic juice secretion over 5 hours as compared with control)” value of the first is lower: 6.8 for the first, 7.1 for the second.

Going from `O=C(N[C@@H](Cc1ccc(O)cc1)C(=O)N(CCO)CCO)c1ccc(O)cc1O` [2,4-Dihydroxybenzoyl-L-tyrosine-diethanolamide] to `COC(=O)[C@H](Cc1ccc(O)cc1)NC(=O)c1ccc(O)cc1O` [2,4-Dihydroxybenzoyl-L-tyrosine-methyl ester], the “Rel. Intensity of effect over 5 hours (total pancreatic juice secretion over 5 hours as compared with control)” value falls from 8.7 to 7.8.

First: CCCCNC(=O)[C@H](Cc1ccc(O)cc1)NC(=O)c1ccc(O)cc1O [2,4-Dihydroxybenzoyl-L-tyrosine-n-butylamide]
Second: O=C(c1cc(Cl)ccc1O)N(CCO)CCO [2-Hydroxy-5-chloro-benzoic acid-diethanolamide]
The “Rel. Intensity of effect over 5 hours (total pancreatic juice secretion over 5 hours as compared with control)” value of the first is higher: 8.7 for the first, 7.3 for the second.

First: NC(=O)c1ccccc1O [2-Hydroxy-benzoic acid amide]
Second: O=C(O)c1ccccc1O [2-Hydroxy-benzoic acid]
The “Rel. Intensity of effect over 5 hours (total pancreatic juice secretion over 5 hours as compared with control)” value of the first is higher: 8.0 for the first, 4.5 for the second.

Compared with `O=C(c1ccccc1)c1ccccc1O` [2-Hydroxy-benzophenone], `O=C(O)c1cc(O)nc2ccccc12` [2-Hydroxy-quinoline-4-carboxylic acid] is lower in “Rel. Intensity of effect over 5 hours (total pancreatic juice secretion over 5 hours as compared with control)” value: 7.2 for the first, 5.0 for the second.

First: O=C(CO)c1ccccc1 [2-Hydroxyacetophenone]
Second: O=C(O)c1cc(O)c(O)c(O)c1 [3,4,5-Trihydroxybenzoic acid]
The “Rel. Intensity of effect over 5 hours (total pancreatic juice secretion over 5 hours as compared with control)” value of the first is higher: 7.6 for the first, 5.0 for the second.

`NC(=O)c1cc(O)cc(O)c1` [3,5-Dihydroxybenzoic acid amide] and `O=C(Nc1cccc(O)c1)c1cc(O)cc(O)c1` [3,5-Dihydroxybenzoic acid-3-hydroxy-anilide] are the same in “Rel. Intensity of effect over 5 hours (total pancreatic juice secretion over 5 hours as compared with control)” value: 6.2 for the first, 6.2 for the second.

Going from `O=C(O)c1cc(O)cc(O)c1` [3,5-Dihydroxybenzoic acid] to `O=C(NC(Cc1ccc(O)cc1)C(=O)N(CCO)CCO)c1cc(O)cc(O)c1` [3,5-Dihydroxybenzoyl-L-tyrosine-diethanolamide], the “Rel. Intensity of effect over 5 hours (total pancreatic juice secretion over 5 hours as compared with control)” value rises from 6.6 to 7.6.

Compared with `NS(=O)(=O)c1cccc(NC(=O)c2ccccc2O)c1` [3-(2-Hydroxybenzoylamino)-benzene-sulfonamide], `CC(=O)c1cccc(O)c1` [3-Hydroxy-acetophene] is higher in “Rel. Intensity of effect over 5 hours (total pancreatic juice secretion over 5 hours as compared with control)” value: 8.1 for the first, 9.0 for the second.

Compared with `O=C(c1ccccc1)c1cccc(O)c1` [3-Hydroxy-benzophenone], `O=C(O)c1cccc(O)c1` [3-Hydroxybenzoic acid] is lower in “Rel. Intensity of effect over 5 hours (total pancreatic juice secretion over 5 hours as compared with control)” value: 8.0 for the first, 4.0 for the second.

Compared with `O=S(=O)(c1ccc(O)cc1)c1ccc(O)cc1` [4,4'-Dihydroxy-diphenyl sulfone], `COC(=O)c1ccc(O)cc1` [4-Hydroxy-benzoic acid-methyl-ester] is lower in “Rel. Intensity of effect over 5 hours (total pancreatic juice secretion over 5 hours as compared with control)” value: 6.2 for the first, 5.3 for the second.

Compared with `OCc1ccc(O)cc1` [4-Hydroxy-benzyl alcohol], `CC(=O)c1ccc(O)cc1` [4-Hydroxyacetophenone] is higher in “Rel. Intensity of effect over 5 hours (total pancreatic juice secretion over 5 hours as compared with control)” value: 1.3 for the first, 8.1 for the second.

Going from `O=S(=O)([O-])c1ccc(O)cc1.[Na+]` [4-Hydroxybenzene-sulfonic acid-Na] to `O=C(O)c1ccc(O)cc1` [4-Hydroxybenzoic acid], the “Rel. Intensity of effect over 5 hours (total pancreatic juice secretion over 5 hours as compared with control)” value rises from 2.7 to 3.8.

Going from `O=C(c1ccccc1)c1ccc(O)cc1` [4-Hydroxybenzophenone] to `Oc1cccc2cccnc12` [8-Hydroxyquinoline], the “Rel. Intensity of effect over 5 hours (total pancreatic juice secretion over 5 hours as compared with control)” value falls from 6.7 to 4.7.

First: O=C(N[C@@H](Cc1ccc(O)cc1)C(=O)O)OCc1ccccc1 [Benzyloxycarbonyl-L-tyrosine]
Second: O=C(N[C@@H](Cc1ccc(O)cc1)C(=O)N[C@@H](Cc1ccc(O)cc1)C(=O)O)OCc1ccccc1 [Benzyloxycarbonyl-L-tyrosyl-L-tyrosine] (Cbz-Tyr-Tyr-OH)
The “Rel. Intensity of effect over 5 hours (total pancreatic juice secretion over 5 hours as compared with control)” value of the first is lower: 5.9 for the first, 7.5 for the second.
